Measurements reported in US20200164005A1, “PHARMACEUTICAL COMPOSITIONS OF A BILE ACID DERIVATIVE AND MICROBIOME AND USES THEREOF” (Intercept Pharmaceuticals, Inc., priority 2017, published 2020).

Experiments:
[1] = tested on: small intestinal microbiota; assay: 16S tagged sequencing of small intestinal and fecal microbiota of OCA-treated mice; type: in vivo; details: 10 mg/kg OCA, 14 days
From the text: FIG. 60: The effect of OCA on the composition of the proximal and distal small intestinal, as well as the feces, microbiota of mice based on 16S tagged sequencing.
FIG. 63: Box and whisker plots of differentially abundant taxa in the distal small intestine of mice in response to treatment with OCA relative to two controls. S24-7, Clostridiaceae, and Turibacter are differentially abundant between the MC and OCA groups (fdr=0.1759, 0.04503, and 0.2332, respectively); Sutterella and Akkermansia are differentially abundant between the control and OCA groups (fdr=0.3199 for both).
The bacterial species that increase most prominently upon OCA treatment have been reported to represent a significant proportion of the small intestinal microbiota, but are very minor constituents in stool. For example, Streptococci represent as much as 20% of the human small intestinal microbiota by 16S tagged sequencing (Dlugosz et al., Sci Rep-Uk, 5 (2015)); El Aidy et al., Curr Opin Biotechnol., 32, 14-20 (2015)). […] To determine whether OCA treatment can alter the gut microbiota composition specifically in the small intestine, mice were treated with OCA for 14 days, the microbiota composition in the proximal and distal small intestine, as well as the stool, and quantified bile acids were characterized. […] Also notable was the quantitative difference in the absolute levels of luminal bile acids in the small intestine (approximately 100-fold greater than in the feces, FIGS. 59A-59C); this is consistent with enterohepatic reabsorption of over 95% of bile acids in the terminal ileum of the small intestine (de Aguiar Vallim et al., Cell Metabolism, 17, 657-669 (2013)).

[2] = biological target: T1, farnesoid X receptor (FXR) (Homo sapiens, UniProt Q96RI1); details: cited from earlier work
T1 sequence (Q96RI1 1-486): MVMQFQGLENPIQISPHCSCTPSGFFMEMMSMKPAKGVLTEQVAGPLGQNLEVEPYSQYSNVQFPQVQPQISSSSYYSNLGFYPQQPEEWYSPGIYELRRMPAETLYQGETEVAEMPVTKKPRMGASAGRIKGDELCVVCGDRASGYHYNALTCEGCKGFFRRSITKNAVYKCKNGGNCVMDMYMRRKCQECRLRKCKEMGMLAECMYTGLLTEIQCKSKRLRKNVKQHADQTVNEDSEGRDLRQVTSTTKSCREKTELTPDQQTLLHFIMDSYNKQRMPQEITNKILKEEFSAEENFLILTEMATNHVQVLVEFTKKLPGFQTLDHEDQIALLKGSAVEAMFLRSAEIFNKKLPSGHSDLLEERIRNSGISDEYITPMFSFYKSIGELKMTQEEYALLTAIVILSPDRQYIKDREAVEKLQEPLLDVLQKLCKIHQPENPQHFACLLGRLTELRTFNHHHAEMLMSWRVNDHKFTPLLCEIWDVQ

[3] = tested on: endogenous bile acids; assay: Luminal bile acid concentrations in small intestine and feces of OCA-treated mice; type: in vivo
Experimental: FIG. 54: Bar graphs showing the concentration of taurocholic acid and taurodeoxycholic acid at proximal small bowel and distal small bowel, or in feces, in samples collected from mice treated with control (methylcellulose) or OCA (10 mg/kg/day) for 14 days, followed by no treatment for additional 14 days. Statistically significant differences based on two-tailed Student t-tests are noted: p<0.05 (*) and p<0.01 (**).
FIGS. 59A-59E: Effect of OCA administration on luminal bile acid concentrations in the murine small intestine and feces. […] Mean+SE, *p<0.05, **p<0.01, ***p<0.001. FIGS. 59D-59E show heatmaps of luminal bile acid concentrations in the proximal (FIG. 59D) and distal (FIG. 59E) small intestine.
For example, Streptococci represent as much as 20% of the human small intestinal microbiota by 16S tagged sequencing (Dlugosz et al., Sci Rep-Uk, 5 (2015)); El Aidy et al., Curr Opin Biotechnol., 32, 14-20 (2015)). Some of these bacteria are environmental organisms used in the manufacturing of food introduced into the small intestine with diet, including Streptococcus thermophilus, Bifidobacterium breve, Lactobacillus casei, and Lactococcus lactis (Brigidi et al., International Journal of Food Microbiology, 81, 203-209 (2003); Derrien and van Hylckama Vlieg, Trends Microbiol., 23, 354-366 (2015); Stiles and Holzapfel, International Journal of Food Microbiology, 36, 1-29 (1997)). To determine whether OCA treatment can alter the gut microbiota composition specifically in the small intestine, mice were treated with OCA for 14 days, the microbiota composition in the proximal and distal small intestine, as well as the stool, and quantified bile acids were characterized. Since OCA was prepared in methylcellulose, an additional methylcellulose control group was included due to its previously described effect on fecal bile acid levels (Cox et al., FASEB J 27, 692-702 (2013)).

[4] = Calculated small intestinal luminal concentration of OCA; set-up: species or system human

In the case of CC[C@H]1[C@@H](O)[C@@H]2[C@H](CC[C@]3(C)[C@@H]([C@H](C)CCC(=O)O)CC[C@@H]23)[C@@]2(C)CC[C@@H](O)C[C@@H]12 [OCA, 3α,7α-dihydroxy-6α-ethyl-5β-cholan-24-oic acid], the “Clostriciaceae family of Firmicutes in proximal and distal small intestine” value [1] is reported as “increased abundance”, the “Clostriciaceae family of Firmicutes in the feces” value [1] is reported as “not in the feces” and the “overall composition of the small intestinal microbiota” value ([1]; versus water and methylcellulose) is reported as “different from both control groups”. For the same molecule, the “potency as FXR agonist relative to the endogenous FXR agonist CDCA” value [2] was 100 fold, the “OCA in the small intestinal lumen of treated mice” value ([3]; 10 mg/kg OCA, 14 days) was “detectable” and the “contribution of OCA to the total concentration of bile acids in the small intestinal lumen” value ([3]; 10 mg/kg OCA, 14 days) was “contributed minimally”. The “luminal endogenous primary bile acids in the feces” value ([3]; 10 mg/kg OCA, 14 days) was “no effect”, the “luminal endogenous primary bile acids in proximal and distal small intestine” value ([3]; 10 mg/kg OCA, 14 days, greatest in proximal small intestine) was “significant reduction” and the “luminal cholic and taurocholic acids” value ([3]; 10 mg/kg OCA, 14 days, small intestine) was “largest consistent decreases”. The “levels of taurocholic and taurodeoxycholic acids in proximal and distal small intestine” value ([3]; OCA 10 mg/kg/day, day 14) was “reduction”, the “levels of taurocholic and taurodeoxycholic acids in the colon (feces)” value ([3]; OCA 10 mg/kg/day, day 14) was “not in the colon (feces)” and the “levels of taurocholic and taurodeoxycholic acids in the proximal small intestine after cessation” value ([3]; day 28, two weeks after cessation of OCA) was “continued reduction”. The “calculated physiologic level that would be encountered in the human small intestine” value [4] was “approximately 12 micromolar”.
